Test results taken from patent publication US8741836B2, “Polypeptides” (Novo Nordisk A/S, priority 2011, dated 2014).
Starred links: 1 amine or outer side, 2 acyl side, 3 side chain; linkers in the order of their positions; H or OH if unused. Positions of bridges follow the written chain, without caps; N, C: chain ends. Residues, ends and D or L forms follow the SMILES beside them. *: point of attachment. C20 diacid = O=C(O)CCCCCCCCCCCCCCCCCCC(=O)*; γGlu = O=C(O)[C@H](CCC(=O)[*:2])N[*:1]

Assay: Assay (III) ThT fibrillation assay for physical stability
Assay type: physicochemical
Details: for ThT pH 4.0 lag time: pH 4.0, ThT fibrillation assay
Method in brief: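 Freshly prepared, pH-adjusted formulations with 1 μM ThT incubated at 37 °C under 960 rpm orbital shaking (1 mm), fluorescence (ex 444, em 485 nm) read every 20 min. […] Peptide content before and after measured by reverse-phase HPLC against pramlintide standard.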

| SMILES | ThT pH 4.0 lag time | ThT pH 4.0 lag time (physical stability in fibrillogenesis assay) (pH 4.0) |
| --- | --- | --- |
| CC[C@H](C)[C@H](NC(=O)[C@@H]1CCCN1C(=O)CNC(=O)[C@H](Cc1ccccc1)NC(=O)[C@H](CC(N)=O)NC(=O)[C@H](CC(=O)O)NC(=O)[C@H](CO)NC(=O)[C@H](CO)NC(=O)[C@H](Cc1c[nH]cn1)NC(=O)[C@H](Cc1c[nH]cn1)NC(=O)[C@H](CC(C)C)NC(=O)[C@H](Cc1ccccc1)NC(=O)[C@H](CCC(=O)O)NC(=O)[C@H](C)NC(=O)[C@H](CC(C)C)NC(=O)[C@H](CCCNC(=N)N)NC(=O)[C@H](CCC(N)=O)NC(=O)[C@@H](NC(=O)[C@H](C)NC(=O)[C@@H]1CSSC[C@H](NC(=O)[C@H](CCCCN)NC(=O)CC[C@H](NC(=O)CCCCCCCCCCCCCCCCCCC(=O)O)C(=O)O)C(=O)N[C@@H](CC(N)=O)C(=O)N[C@@H]([C@@H](C)O)C(=O)N[C@@H](C)C(=O)N[C@@H]([C@@H](C)O)C(=O)N1)[C@@H](C)O)C(=O)N[C@@H](CC(C)C)C(=O)N1CCC[C@H]1C(=O)N1CCC[C@H]1C(=O)N[C@H](C(=O)N[C@@H](CC(N)=O)C(=O)N[C@H](C(=O)NCC(=O)N[C@@H](CO)C(=O)N[C@@H](Cc1c[nH]cn1)C(=O)N[C@H](C(=O)N[C@@H](Cc1ccc(O)cc1)C(N)=O)[C@@H](C)O)C(C)C)[C@@H](C)O [Example 128, N-alpha-[(S)-4-Carboxy-4-(19-carboxynonadecanoylamino)butyryl]-[Glu14,His17,Asp21,His35]-pramlintide] ({C20 diacid-γGlu}-KCNTATCATQRLAEFLHHSSDNFGPILPPTNVGSHTY-NH2; disulfide 2-7) | >45 h |  |
| CC[C@H](C)[C@H](NC(=O)[C@@H]1CCCN1C(=O)CNC(=O)[C@H](Cc1ccccc1)NC(=O)[C@H](CC(N)=O)NC(=O)[C@H](CC(N)=O)NC(=O)[C@H](CO)NC(=O)[C@H](CO)NC(=O)[C@H](CCCNC(=N)N)NC(=O)[C@H](Cc1c[nH]cn1)NC(=O)[C@H](CC(C)C)NC(=O)[C@H](Cc1ccccc1)NC(=O)[C@H](CCC(=O)O)NC(=O)[C@H](C)NC(=O)[C@H](CC(C)C)NC(=O)[C@H](CCCNC(=N)N)NC(=O)[C@H](CCC(N)=O)NC(=O)[C@@H](NC(=O)[C@H](C)NC(=O)[C@@H]1CSSC[C@H](NC(=O)[C@H](CCCCN)NC(=O)CC[C@H](NC(=O)CCCCCCCCCCCCCCCCCCC(=O)O)C(=O)O)C(=O)N[C@@H](CC(N)=O)C(=O)N[C@@H]([C@@H](C)O)C(=O)N[C@@H](C)C(=O)N[C@@H]([C@@H](C)O)C(=O)N1)[C@@H](C)O)C(=O)N[C@@H](CC(C)C)C(=O)N1CCC[C@H]1C(=O)N1CCC[C@H]1C(=O)N[C@H](C(=O)N[C@@H](CC(N)=O)C(=O)N[C@H](C(=O)NCC(=O)N[C@@H](CO)C(=O)N[C@@H](Cc1c[nH]cn1)C(=O)N[C@H](C(=O)N[C@@H](Cc1ccc(O)cc1)C(N)=O)[C@@H](C)O)C(C)C)[C@@H](C)O [Example 78, N-alpha-[(S)-4-Carboxy-4-(19-carboxynonadecanoylamino)butyryl]-[Glu14,His17,Arg18,His35]-pramlintide] ({C20 diacid-γGlu}-KCNTATCATQRLAEFLHRSSNNFGPILPPTNVGSHTY-NH2; disulfide 2-7 (inferred)) | >45 h |  |
| CC[C@H](C)[C@H](NC(=O)[C@@H]1CCCN1C(=O)CNC(=O)[C@H](Cc1ccccc1)NC(=O)[C@H](CC(N)=O)NC(=O)[C@H](CC(N)=O)NC(=O)[C@H](CO)NC(=O)[C@H](CO)NC(=O)[C@H](Cc1c[nH]cn1)NC(=O)[C@H](Cc1c[nH]cn1)NC(=O)[C@H](CC(C)C)NC(=O)[C@H](Cc1ccccc1)NC(=O)[C@H](CCC(=O)O)NC(=O)[C@H](C)NC(=O)[C@H](CC(C)C)NC(=O)[C@H](CCCCN)NC(=O)[C@H](CCC(N)=O)NC(=O)[C@@H](NC(=O)[C@H](C)NC(=O)[C@@H]1CSSC[C@H](NC(=O)[C@H](CCCCN)NC(=O)CC[C@H](NC(=O)CCCCCCCCCCCCCCCCCCC(=O)O)C(=O)O)C(=O)N[C@@H](CC(N)=O)C(=O)N[C@@H]([C@@H](C)O)C(=O)N[C@@H](C)C(=O)N[C@@H]([C@@H](C)O)C(=O)N1)[C@@H](C)O)C(=O)N[C@@H](CC(C)C)C(=O)N1CCC[C@H]1C(=O)N1CCC[C@H]1C(=O)N[C@H](C(=O)N[C@@H](CC(N)=O)C(=O)N[C@H](C(=O)NCC(=O)N[C@@H](CO)C(=O)N[C@@H](CC(N)=O)C(=O)N[C@H](C(=O)N1CCC[C@H]1C(N)=O)[C@@H](C)O)C(C)C)[C@@H](C)O [Example 145, N-alpha-[(S)-4-Carboxy-4-(19-carboxynonadecanoylamino)butyryl]-[Lys11,Glu14,His17,Pro37]-pramlintide] ({C20 diacid-γGlu}-KCNTATCATQKLAEFLHHSSNNFGPILPPTNVGSNTP-NH2; disulfide 2-7) | >45 h | >45 h |
| CC[C@H](C)[C@H](NC(=O)[C@@H]1CCCN1C(=O)CNC(=O)[C@H](Cc1ccccc1)NC(=O)[C@H](CC(N)=O)NC(=O)[C@H](CC(N)=O)NC(=O)[C@H](CO)NC(=O)[C@H](CO)NC(=O)[C@H](Cc1c[nH]cn1)NC(=O)[C@H](Cc1c[nH]cn1)NC(=O)[C@H](CC(C)C)NC(=O)[C@H](Cc1ccccc1)NC(=O)[C@H](CCC(=O)O)NC(=O)[C@H](C)NC(=O)[C@H](CC(C)C)NC(=O)[C@H](CCCNC(=N)N)NC(=O)[C@H](CCC(N)=O)NC(=O)[C@@H](NC(=O)[C@H](C)NC(=O)[C@@H]1CSSC[C@H](NC(=O)[C@H](CCCCN)NC(=O)[C@H](Cc2c[nH]cn2)NC(=O)[C@H](Cc2c[nH]cn2)NC(=O)CC[C@H](NC(=O)CCCCCCCCCCCCCCCCCCC(=O)O)C(=O)O)C(=O)N[C@@H](CC(N)=O)C(=O)N[C@@H]([C@@H](C)O)C(=O)N[C@@H](C)C(=O)N[C@@H]([C@@H](C)O)C(=O)N1)[C@@H](C)O)C(=O)N[C@@H](CC(C)C)C(=O)N1CCC[C@H]1C(=O)N1CCC[C@H]1C(=O)N[C@H](C(=O)N[C@@H](CC(N)=O)C(=O)N[C@H](C(=O)NCC(=O)N[C@@H](CO)C(=O)N[C@@H](Cc1c[nH]cn1)C(=O)N[C@H](C(=O)N[C@@H](Cc1ccc(O)cc1)C(N)=O)[C@@H](C)O)C(C)C)[C@@H](C)O [Example 67, N-alpha-[(S)-4-Carboxy-4-(19-carboxynonadecanoylamino)butyryl]-His-His-[Glu14,His17,His35]-pramlintide] ({C20 diacid-γGlu}-HHKCNTATCATQRLAEFLHHSSNNFGPILPPTNVGSHTY-NH2; disulfide 4-9 (inferred)) | >45 h |  |
